Data on one compound can be found in PMC8667942 (Journal of Enzyme Inhibition and Medicinal Chemistry, 2021).

Each structure is given as a SMILES string.

The target of series [1] is purified CYP3A4 (Homo sapiens, UniProt P08684). Description: Spectral binding titration of purified CYP3A4. The following applies: Type I or Type II spectral change.
Description: Purified CYP3A4 enzymes were diluted to 1 µM in 100 mM potassium phosphate buffer (pH 7.4) and then divided into two glass cuvettes. […] The binding titration was analysed using GraphPad Prism software (GraphPad, Inc., La Jolla, CA, USA).
Series [2] has as its target T1, human IP6K2 (Homo sapiens, UniProt Q9UHH9).
T1 construct: made in house; host or cells: Sf9 insect cells (baculovirus)
T1 sequence (Q9UHH9 1-426): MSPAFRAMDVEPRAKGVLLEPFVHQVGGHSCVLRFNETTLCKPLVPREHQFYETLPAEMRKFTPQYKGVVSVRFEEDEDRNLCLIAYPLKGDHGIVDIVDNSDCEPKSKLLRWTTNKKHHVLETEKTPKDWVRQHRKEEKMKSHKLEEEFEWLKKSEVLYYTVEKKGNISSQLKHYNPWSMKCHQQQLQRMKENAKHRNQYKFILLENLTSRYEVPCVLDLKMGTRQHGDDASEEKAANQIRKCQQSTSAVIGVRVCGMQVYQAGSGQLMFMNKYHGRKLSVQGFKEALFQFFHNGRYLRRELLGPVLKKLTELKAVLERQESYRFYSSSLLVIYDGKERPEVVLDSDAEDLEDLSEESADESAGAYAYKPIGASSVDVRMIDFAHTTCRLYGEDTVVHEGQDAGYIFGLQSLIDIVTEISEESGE
In words: IP6K2 inhibition assay (ADP Glo kinase assay). The class given is biochemical. The following applies: purified human IP6K2, 10 μM IP6, 10 μM ATP, 8-dose, triplicate, mean ± SEM. How it is done: Full-length human IP6K2 cDNA was subcloned into pFASTBAC1 plasmid (Gibco) with an N-terminal FLAG epitope sequence, and baculovirus was generated according to the manufacturer’s instructions. Sf9 insect cells were infected with baculovirus and incubated for 72 h. The cells were resuspended in lysis buffer [20 mM Tris–HCl (pH 7.9), 500 mM NaCl, 4 mM MgCl2, 0.4 mM EDTA, 2 mM DTT, 20% glycerol, 1 mM PMSF, and protease inhibitor cocktail (Roche)] and then disrupted with a Dounce homogeniser (pestle A, 3 series of 10 strokes with 10 min interval).
IP6K2 activity was measured using ADP Glo assay kit (Promega). All kinase assays were performed in low volume 384-well white plates (784075, Greiner-bioone) with a final volume of 5 μL. The reaction buffer contained 2 ng Flag-hIP6K2, 10 μM IP6, and 10 μM ATP in kinase buffer (50 mM Tris, 10 mM MgCl2, 2.5 mM DTT, 0.02% Triton-X-100, pH 6.8)[26]. For dose-dependent inhibition assay, 8 serial 2-fold dilutions of test compounds were prepared in DMSO. The final DMSO concentration was 5% in each reaction. The test compounds (5X, 25% DMSO in 1X kinase buffer) were dispensed to each well, and 2.5 X IP6K2 in kinase buffer were added. After 15 min incubation at room temperature, 2.5 X concentrations of IP6 and ATP were added to the plate. The reaction plate was incubated in a 37 °C incubator for 30 min. Next, the reactions were quenched with 5 μL of ADP Glo reagent for 40 min to deplete the remaining ATP. To convert the remaining ADP to ATP, 10 μl of detection reagent were added and incubated for 30–60 min. The luminescence of the final reactants was measured using the Mithras LB940 plate reader from Berthold. Samples were run in triplicate and the activity (%) was calculated using the following equations; Activity (%) = 100 × (μexperimental–μnegative)/(μpositive–μnegative). Negative control was DSMO-treated reaction. IC50 value was estimated using a logistic regression model with R package.
For orientation: ADP-Glo first removes unused ATP, then detects ADP through luciferase.

The subject of series [3] is IP3K. To be noted: [ATP] = 10 μM; cited from earlier work.

Chain of purified CYP3A4 (P08684 whole entry): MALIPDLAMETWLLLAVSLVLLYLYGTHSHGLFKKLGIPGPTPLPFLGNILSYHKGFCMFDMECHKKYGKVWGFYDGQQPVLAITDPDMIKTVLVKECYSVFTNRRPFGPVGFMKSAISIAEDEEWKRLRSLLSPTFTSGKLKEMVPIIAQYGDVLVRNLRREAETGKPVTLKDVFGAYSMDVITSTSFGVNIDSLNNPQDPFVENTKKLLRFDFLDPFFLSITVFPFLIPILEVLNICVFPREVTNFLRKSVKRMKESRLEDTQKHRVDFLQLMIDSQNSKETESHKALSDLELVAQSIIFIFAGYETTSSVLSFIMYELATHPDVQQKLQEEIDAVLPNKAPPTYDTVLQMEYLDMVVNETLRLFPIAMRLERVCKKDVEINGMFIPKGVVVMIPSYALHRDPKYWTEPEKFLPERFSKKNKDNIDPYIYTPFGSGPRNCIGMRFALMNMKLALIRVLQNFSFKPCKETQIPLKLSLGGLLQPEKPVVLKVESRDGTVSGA

By IC50 is commonly meant the point on the concentration scale where inhibition reaches its midpoint. For `O=[N+]([O-])c1ccc(CNc2nc(NCc3cccc(C(F)(F)F)c3)nc3[nH]cnc23)cc1` [TNP, N^6-[(4-nitrophenyl)methyl]-N^2-[[3-(trifluoromethyl)phenyl]methyl]-9H-purine-2,6-diamine], in series [1], the CYP3A4 binding mode result is on record as “Type I”. Moreover, the IC50 in series [2] was 4.5 ± 0.4 µM; in series [3], 18 µM.
